Test results: article PMC10819888, “Benzimidazole-Based Derivatives as Apoptotic Antiproliferative Agents: Design, Synthesis, Docking, and Mechanistic Studies” (Molecules, 2024)

What was measured:
Assay in all cases: NCI-60 one-dose assay
Type in all cases: cell-based
[1] = test system: UO-31; conditions: Homo sapiens, UO-31 (Renal Cancer), read-out: Cell Inhibition Percent
[2] = test system: T-47D; conditions: Homo sapiens, T47D, T-47D (Breast Cancer), read-out: Cell Inhibition Percent
[3] = test system: IGROV1; conditions: Homo sapiens, IGROV-1, IGROV1 (ovarian cancer), read-out: Cell Inhibition Percent
[4] = test system: MDA-MB-435; conditions: Homo sapiens, MDA-MB-435 (Melanoma), read-out: Cell Inhibition Percent
[5] = test system: OVCAR-3; conditions: Homo sapiens, OVCAR-3 (ovarian cancer), read-out: Cell Inhibition Percent
[6] = test system: A549/ATCC; conditions: Homo sapiens, A549/ATCC (Non-Small Cell Lung Cancer), read-out: Cell Inhibition Percent
[7] = test system: SK-MEL-5; conditions: Homo sapiens, SK-MEL-5 (Melanoma), read-out: Cell Inhibition Percent
[8] = test system: SK-MEL-2; conditions: Homo sapiens, SK-MEL-2 (Melanoma), read-out: Cell Inhibition Percent
[9] = test system: SNB-75; conditions: Homo sapiens, SNB-75 (CNS cancer), read-out: Cell Inhibition Percent
[10] = test system: COLO 205; conditions: Homo sapiens, COLO 205 (Colon Cancer), read-out: Cell Inhibition Percent
[11] = test system: MCF7; conditions: Homo sapiens, MCF7 (Breast Cancer), read-out: Cell Inhibition Percent
[12] = test system: OVCAR-8; conditions: Homo sapiens, OVCAR-8 (ovarian cancer), read-out: Cell Inhibition Percent
[13] = test system: HCT-116; conditions: Homo sapiens, HCT-116 (Colon Cancer), read-out: Cell Inhibition Percent
[14] = test system: MALME-3M; conditions: Homo sapiens, MALME-3M (Melanoma), read-out: Cell Inhibition Percent
[15] = test system: LOX IMVI; conditions: Homo sapiens, LOX IMVI (Melanoma), read-out: Cell Inhibition Percent
[16] = test system: PC-3; conditions: Homo sapiens, PC-3 (Prostate Cancer), read-out: Cell Inhibition Percent
[17] = test system: RPMI-8226; conditions: Homo sapiens, RPMI-8226 (Leukemia), read-out: Cell Inhibition Percent
[18] = test system: MDA-MB 231; conditions: Homo sapiens, MDA-MB 231 (Breast Cancer), read-out: Cell Inhibition Percent
[19] = test system: U251; conditions: Homo sapiens, U-251, U251 (CNS cancer), read-out: Cell Inhibition Percent
[20] = test system: A498; conditions: Homo sapiens, A498 (Renal Cancer), read-out: Cell Inhibition Percent
[21] = test system: HL-60(TB); conditions: Homo sapiens, HL-60(TB) (Leukemia), read-out: Cell Inhibition Percent
[22] = test system: NCI-H322M; conditions: Homo sapiens, NCI-H322M (Non-Small Cell Lung Cancer), read-out: Cell Inhibition Percent
[23] = test system: NCI-H23; conditions: Homo sapiens, NCI-H23 (Non-Small Cell Lung Cancer), read-out: Cell Inhibition Percent
[24] = test system: EKVX; conditions: Homo sapiens, EKVX (Non-Small Cell Lung Cancer), read-out: Cell Inhibition Percent
[25] = test system: SF-295; conditions: Homo sapiens, SF-295 (CNS cancer), read-out: Cell Inhibition Percent
[26] = test system: M14; conditions: Homo sapiens, M14 (Melanoma), read-out: Cell Inhibition Percent
[27] = test system: OVCAR-5; conditions: Homo sapiens, OVCAR-5 (ovarian cancer), read-out: Cell Inhibition Percent
[28] = test system: RXF 393; conditions: Homo sapiens, RXF 393 (Renal Cancer), read-out: Cell Inhibition Percent
[29] = test system: HCT-15; conditions: Homo sapiens, HCT-15 (Colon Cancer), read-out: Cell Inhibition Percent

| SMILES | inhibition at 10 µM [1] | inhibition at 10 µM [2] | inhibition at 10 µM [3] | inhibition at 10 µM [4] | inhibition at 10 µM [5] | inhibition at 10 µM [6] | inhibition at 10 µM [7] | inhibition at 10 µM [8] | inhibition at 10 µM [9] | inhibition at 10 µM [10] | inhibition at 10 µM [11] | inhibition at 10 µM [12] | inhibition at 10 µM [13] | inhibition at 10 µM [14] | inhibition at 10 µM [15] | inhibition at 10 µM [16] | inhibition at 10 µM [17] | inhibition at 10 µM [18] | inhibition at 10 µM [19] | inhibition at 10 µM [20] | further results |
| --- | --- | --- | --- | --- | --- | --- | --- | --- | --- | --- | --- | --- | --- | --- | --- | --- | --- | --- | --- | --- | --- |
| O=C(NN=Cc1ccc(Cl)cc1Cl)c1ccc2[nH]c(-c3ccc(Cl)cc3)nc2c1 [Compound 4f, N′-(2,4-Dichlorobenzylidene)-2-(4-chlorophenyl)-1H-benzimidazole-5-carbohydrazide] | 27.8% | 12.3% | 31% | 0% | 0% | 4.7% | 2.92% | 2.9% | 12.4% | 0% | 13.4% | 17.1% | 8.63% | 9.55% | 18.9% | 7.03% | 15.4% | 11.4% | 41% | 36.7% | inhibition at 10 µM [21]: 5.98%; inhibition at 10 µM [22]: 0%; inhibition at 10 µM [23]: 4.26%; inhibition at 10 µM [24]: 13.7%; inhibition at 10 µM [25]: 1.19%; inhibition at 10 µM [26]: 17.1%; inhibition at 10 µM [27]: 0%; inhibition at 10 µM [28]: 12.5%; inhibition at 10 µM [29]: 0% |
| COc1cc(/C=N/NC(=O)c2ccc3[nH]c(-c4ccc(Cl)cc4)nc3c2)cc(OC)c1OC [Compound 4h, N′-(3,4,5-Trimethoxybenzylidene)-2-(4-chlorophenyl)-1H-benzimidazole-5 carbohydrazide] | 11.7% | 84.1% | 31.6% | 36% | 38.4% | 14.2% | 58.1% | 16.4% | 13.4% | 54.3% | 87.9% | 39.5% | 63.8% | 71.6% | 49.4% | 40.1% | 80.1% | 0% | 46.8% | 102% | inhibition at 10 µM [21]: 55.1%; inhibition at 10 µM [22]: 12.4%; inhibition at 10 µM [23]: 46.3%; inhibition at 10 µM [24]: 4.23%; inhibition at 10 µM [25]: 56%; inhibition at 10 µM [26]: 58%; inhibition at 10 µM [27]: 0%; inhibition at 10 µM [28]: 63.7%; inhibition at 10 µM [29]: 3.98% |
| O=C(N/N=C/c1ccc(O)cc1)c1ccc2[nH]c(-c3ccc(Cl)cc3)nc2c1 [Compound 4i, N′-(4-Hydroxybenzylidene)-2-(4-chlorophenyl)-1H-benzimidazole-5-carbohydrazide] | 15.9% | 24.2% | 17% | 0% | 0% | 0% | 4.32% | 0% | 0% | 0.44% | 25.1% | 0% | 0% | 21.4% | 11.9% | 0% | 1.52% | 2.75% | 0% | 5.34% | inhibition at 10 µM [21]: 0%; inhibition at 10 µM [22]: 0.47%; inhibition at 10 µM [23]: 4.44%; inhibition at 10 µM [24]: 0%; inhibition at 10 µM [25]: 0%; inhibition at 10 µM [26]: 0.44%; inhibition at 10 µM [27]: 0%; inhibition at 10 µM [28]: 0%; inhibition at 10 µM [29]: 0% |
| CCn1c(-c2ccc3[nH]c(-c4ccc(Cl)cc4)nc3c2)n[nH]c1=S [Compound 6, 4-ethyl-5-(2-(4-chlorophenyl)-1H-benzimidazol-5-yl)-2,4-dihydro-3H-1,2,4triazole-3-thione] | 16.8% | 0.3% | 0.16% | 0% | 0% | 0% | 2.04% | 0% | 3.91% | 0% | 14.6% | 0% | 0% | 2.41% | 0% | 7.76% | 0.68% | 2.36% | 0% | 56.9% | inhibition at 10 µM [21]: 0%; inhibition at 10 µM [22]: 0%; inhibition at 10 µM [23]: 4.53%; inhibition at 10 µM [24]: 0.44%; inhibition at 10 µM [25]: 0.56%; inhibition at 10 µM [26]: 0%; inhibition at 10 µM [27]: 0%; inhibition at 10 µM [28]: 13.9%; inhibition at 10 µM [29]: 1.62% |
